Columns and labels:
[1] = Cytotoxicity against human MAGI-CCR5 cells assessed as cell viability by MTS assay; assay type: cell-based
[2] = Cytotoxicity against human MAGI-CCR5 cells assessed as cell viability by MTS assay in presence of 5% serum; assay type: cell-based
[3] = Cytotoxicity against human MAGI-CCR5 cells assessed as cell viability by MTS assay in presence of 10% serum; assay type: cell-based
[4] = test system: Human immunodeficiency virus 1; test: Antiviral activity against HIV1 Ba-L assessed as inhibition of viral replication by CCR5/CXCR4-tropic MAGI assay in presence of 10% serum; assay type: functional, organism-based; conditions: Human immunodeficiency virus 1, Ba-L
[5] = test system: Human immunodeficiency virus 1; test: Antiviral activity against HIV1 Ba-L assessed as inhibition of viral replication by CCR5/CXCR4-tropic MAGI assay in presence of 5% serum; assay type: functional, organism-based; conditions: Human immunodeficiency virus 1, Ba-L
[6] = test system: Human immunodeficiency virus 1; test: Antiviral activity against HIV1 3B assessed as inhibition of viral replication by CCR5/CXCR4-tropic MAGI assay in presence of 10% serum; assay type: functional, organism-based; conditions: Human immunodeficiency virus 1, 3B
[7] = test system: Human immunodeficiency virus 1; test: Antiviral activity against HIV1 Ba-L assessed as inhibition of viral replication by CCR5/CXCR4-tropic MAGI assay in presence of 2% serum; assay type: functional, organism-based; conditions: Human immunodeficiency virus 1, Ba-L
[8] = Cytotoxicity against human MAGI-CCR5 cells assessed as cell viability by MTS assay in presence of 2% serum; assay type: cell-based
[9] = Binding affinity to HIV1 HXB2 gp41 by fluorescence assay; parameters: species or system Human immunodeficiency virus 1
[10] = Inhibition of gp41 in HIV1 HXB2 assessed as cell-cell fusion inhibition after 6 hrs by luciferase reporter gene assay; conditions: Human immunodeficiency virus 1, HXB2, 6 h

Structure (SMILES) | EC50 [4] [µM] | EC50 [5] [µM] | EC50 [6] [µM] | EC50 [7] [µM] | CC50 ([1]; MAGI-CCR5 cells) [µM] | CC50 [2] [µM] | CC50 [3] [µM] | CC50 [8] [µM] | CC50 ([1]; magi-ccr5) [µM] | Ki [9] [µM] | EC50 [10] [µM]
O=Cc1c[nH]c2cc(Cc3cccc(C(=O)O)c3)ccc12 |  |  |  |  | > 100 |  |  |  |  |  | 
O=C(O)C(=O)c1c[nH]c2cc(Cc3cccc(C(=O)O)c3)ccc12 |  |  |  |  | > 100 |  |  |  |  |  | 
O=C(O)c1cccc(Cc2ccc3cc[nH]c3c2)c1 | 44.7 | 34.8 | 100 | 15.5 |  | > 100 | > 100 | > 100 |  |  | 
O=C(O)c1cccc(Cc2ccc3ccn(Cc4cccc(C(=O)O)c4)c3c2)c1 |  |  |  |  | > 200 |  |  |  |  |  | 
O=C(O)c1cccc(Cc2ccc3ccn(-c4cccc(C(=O)O)c4)c3c2)c1 |  |  |  |  | > 400 |  |  |  |  | 45 | 
COc1ccc(C(=O)O)cc1Cc1ccc2cc[nH]c2c1 | > 100 | > 100 | > 100 | > 100 |  | > 100 | > 100 | > 100 | > 100 |  | 
O=C(O)c1cc(O)cc(Cc2ccc3cc[nH]c3c2)c1 | > 100 | > 100 | > 100 | > 100 | > 500 | > 100 | > 100 | > 100 |  |  | 
O=C(O)c1cccc(Cc2ccc3c(ccn3Cc3cccc(C(=O)O)c3)c2)c1 |  |  |  |  | > 100 |  |  |  |  | 35 | > 100
O=C(O)c1cccc(COc2cccc(-c3ccc4ccn(Cc5cccc(C(=O)O)c5)c4c3)c2)c1 | > 100 | 56.2 | > 100 | 34.2 | > 500 | > 100 | > 100 | > 100 |  |  | 
COc1cccc(-c2ccc3ccn(Cc4cccc(C(=O)O)c4)c3c2)c1 | 47.4 | 36.6 | 57.4 | 18 | > 500 | > 100 | > 100 | 67.5 |  |  | 
O=C(O)c1cccc(Cn2ccc3ccc(-c4cccc(O)c4)cc32)c1 | 82.7 | 58.5 | > 100 | 27.6 |  | > 100 | > 100 | > 100 | > 100 |  | 
COc1ccc(COc2cccc(-c3ccc4ccn(Cc5cccc(C(=O)OCc6cccc(C(=O)O)c6)c5)c4c3)c2)cc1 | 22.6 | 18.7 | 34.3 | 13.8 |  | > 100 | > 100 | 58.9 | > 100 |  | 
O=C(O)c1cccc(Cn2ccc3ccc(-c4ccc5cc(Cl)ccc5n4)cc32)c1 | > 100 | 88.5 | > 100 | 48 |  | > 100 | > 100 | > 100 | 47 |  | 
O=C(O)c1cccc(Cn2ccc3ccc(-c4ccc5ccn(Cc6ccc(F)cc6)c5c4)cc32)c1 | 4.49 | 3.3 | 5.2 | 1.56 |  | 98.5 | > 100 | 52.2 | 17 | 1.1 | 0.54
O=C(O)c1cccc(-c2ccc3cc[nH]c3c2)c1 |  |  |  |  | > 100 |  |  |  |  |  | 

The next lines start with results.

EC50 [4] [µM] | EC50 [5] [µM] | EC50 [6] [µM] | EC50 [7] [µM] | Structure (SMILES) | CC50 ([1]; MAGI-CCR5 cells) [µM] | CC50 [2] [µM] | CC50 [3] [µM] | CC50 [8] [µM] | CC50 ([1]; magi-ccr5) [µM] | Ki [9] [µM] | EC50 [10] [µM]
> 100 | 91.2 | > 100 | 55.8 | COc1ccc(Cn2ccc3ccc(Cc4cccc(C(=O)O)c4)cc32)cc1 |  | > 100 | > 100 | 92.7 | 100 |  | 
92.1 | 49.6 | > 100 | 14.6 | O=C(O)c1cccc(Cc2ccc3ccn(Cn4ccc5ccc(Cc6cccc(C(=O)O)c6)cc54)c3c2)c1 |  | > 100 | > 100 | > 100 |  |  | 
67.7 | 34 | 61.5 | 15.8 | COc1cccc(-n2ccc3ccc(Cc4cccc(C(=O)O)c4)cc32)c1 |  | > 100 | > 100 | > 100 |  |  | 
> 100 | > 100 | > 100 | 8.65 | COc1cc(Cc2ccc3cc[nH]c3c2)cc(C(=O)O)c1 |  | > 100 | > 100 | > 100 | > 100 |  | 
> 100 | 89.3 | > 100 | 42.7 | O=C(O)c1ccc(O)c(Cc2ccc3cc[nH]c3c2)c1 | > 500 | > 100 | > 100 | > 100 |  |  | 
> 100 | 82.7 | > 100 | 18.5 | O=C(O)c1ccc([N+](=O)[O-])c(Cc2ccc3cc[nH]c3c2)c1 |  | > 100 | > 100 | > 100 | > 100 |  | 
63.5 | 52.4 | > 100 | 42.4 | O=C(O)c1cccc(Cc2ccc3[nH]ccc3c2)c1 | > 400 | > 100 | > 100 | > 100 |  |  | 
2.38 | 2.01 | 2.8 | 0.92 | COc1ccc(Cn2ccc3ccc(-c4ccc5ccn(Cc6cccc(C(=O)O)c6)c5c4)cc32)cc1 |  | > 100 | > 100 | 50.1 | 19 |  | 
13.1 | 10.1 | 15.5 | 6.41 | O=C(O)c1cccc(Cn2ccc3cc(-c4ccc5cc(Cl)ccc5n4)ccc32)c1 |  | > 100 | > 100 | 50.1 | > 100 |  | 
